According to patent US20240150377A1, “MODULATORS OF CYSTIC FIBROSIS TRANSMEMBRANE CONDUCTANCE REGULATOR” (VERTEX PHARMACEUTICALS INCORPORATED, priority 2020, published 2024):
Like-named read-outs stand apart in the source and are kept apart here.

Target: CFTR (Homo sapiens, UniProt P13569)
Assay: Membrane potential dye, Enteroid Assay B
Type: cell-based
Settings: for Ent. B Max Activity: chloride transport as % of triple combination control (Enteroid Assay B); for EC50: read-out: Ent. B EC50
Description: Base medium (ADF+++) consisted of Advanced DMEM/Ham's F12, 2 mM Glutamax, 10 mM HEPES, […] penicillin/streptomycin.
Intestinal enteroid maintenance medium (IEMM) consisted of ADF+++, 1× B27 supplement, 1× N2 supplement, 1.25 mM N-acetyl cysteine, 10 mM Nicotinamide, 50 ng/mL hEGF, 10 nM Gastrin, 1 μg/mL hR-spondin-1, 100 ng/mL hNoggin, TGF-b type 1 inhibitor A-83-01, 100 μg/mL Primocin, 10 μM P38 MAPK inhibitor SB202190.
Bath 1 Buffer consisted of 1 mM MgCl2, 160 mM NaCl, 4.5 mM KCl, 10 mM HEPES, 10 mM Glucose, 2 mM CaCl2).
Chloride Free Buffer consisted of 1 mM Magnesium Gluconate, 2 mM Calcium Gluconate, 4.5 mM Potassium Gluconate, 160 mM Sodium Gluconate, 10 mM HEPES, 10 mM Glucose.
BathI Dye Solution consisted of Bath 1 Buffer, 0.04% Pluronic F127, 20 μM Methyl Oxonol, 30 μM CaCCinh-A01, 30 μM Chicago Sky Blue.
Chloride Free Dye Solution consisted of Chloride Free Buffer, 0.04% Pluronic F127, 20 μM Methyl Oxonol, 30 μM CaCCinh-A01, 30 μM Chicago Sky Blue.
Chloride Free Dye Stimulation Solution consisted of Chloride Free Dye Solution, 10 μM forskolin, 100 μM IBMX, and 300 nM Compound III.
Human intestinal epithelial enteroid cells were obtained from the Hubrecht Institute for Developmental Biology and Stem Cell Research, Utrecht, The Netherlands and expanded in T-Flasks as previously described (Dekkers J F, Wiegerinck C L, de Jonge H R, Bronsveld I, Janssens H M, de Winter-de Groot K M, Brandsma A M, de Jong N W M, Bijvelds M J C, Scholte B J, Nieuwenhuis E E S, van den Brink S, Clevers H, van der Ent C K, Middendorp S and M Beekman J M. A functional CFTR assay using primary cystic fibrosis intestinal organoids. Nat Med. 2013 July;19(7):939-45.).
3. Enteroid Cell Harvesting and Seeding
Cells were recovered in cell recovery solution, collected by centrifugation at 650 rpm for 5 min at 4° C., resuspended in TrypLE and incubated for 5 min at 37° C. Cells were then collected by centrifugation at 650 rpm for 5 min at 4° C. and resuspended in IEMM containing 10 μM ROCK inhibitor (RI). The cell suspension was passed through a 40 μm cell strainer and resuspended at 1×10^6 cells/mL in IEMM containing 10 μM RI. Cells were seeded at 5000 cells/well into multi-well plates and incubated for overnight at 37° C., 95% humidity and 5% CO2 prior to assay.
5. Membrane Potential Dye, Enteroid Assay B
Enteroid cells were incubated with test compound in IEMM for 18-24 hours at 37° C., 95% humidity and 5% CO2. […] Briefly, cells were washed 5 times in Bath 1 Buffer. Bath 1 Dye Solution was added and the cells were incubated for 25 min at room temperature. Following dye incubation, cells were washed 3 times in Chloride Free Dye Solution. Chloride transport was initiated by addition of Chloride Free Dye Stimulation Solution and the fluorescence signal was read for 15 min. […] Chloride transport was then expressed as a percentage of the chloride transport following treatment with 1 μM (14S)-8-[3-(2-{Dispiro[2.0.2.1]heptan-7-yl}ethoxy)-1H-pyrazol-1-yl]-12,12-dimethyl-2λ^6-thia-3,9,11,18,23-pentaazatetracyclo[17.3.1.111,14.05,10]tetracosa-1(22),5,7,9,19(23),20-hexaene-2,2,4-trione, 3 μM (R)-1-(2,2-difluorobenzo[d][1,3]dioxol-5-yl)-N-(1-(2,3-dihydroxypropyl)-6-fluoro-2-(1-hydroxy-2-methylpropan-2-yl)-1H-indol-5-yl)cyclopropanecarboxamide and 300 nM acute N-[2,4-bis(1,1-dimethylethyl)-5-hydroxyphenyl]-1,4-dihydro-4-oxoquinoline-3-carboxamide triple combination control (% Activity).

[1] = Table 8, human enteroid cells, 18-24 hours, acute 10 μM forskolin and 300 nM ivacaftor

CFTR, sequence (P13569 with tags, fused parts or gaps DEL508-508): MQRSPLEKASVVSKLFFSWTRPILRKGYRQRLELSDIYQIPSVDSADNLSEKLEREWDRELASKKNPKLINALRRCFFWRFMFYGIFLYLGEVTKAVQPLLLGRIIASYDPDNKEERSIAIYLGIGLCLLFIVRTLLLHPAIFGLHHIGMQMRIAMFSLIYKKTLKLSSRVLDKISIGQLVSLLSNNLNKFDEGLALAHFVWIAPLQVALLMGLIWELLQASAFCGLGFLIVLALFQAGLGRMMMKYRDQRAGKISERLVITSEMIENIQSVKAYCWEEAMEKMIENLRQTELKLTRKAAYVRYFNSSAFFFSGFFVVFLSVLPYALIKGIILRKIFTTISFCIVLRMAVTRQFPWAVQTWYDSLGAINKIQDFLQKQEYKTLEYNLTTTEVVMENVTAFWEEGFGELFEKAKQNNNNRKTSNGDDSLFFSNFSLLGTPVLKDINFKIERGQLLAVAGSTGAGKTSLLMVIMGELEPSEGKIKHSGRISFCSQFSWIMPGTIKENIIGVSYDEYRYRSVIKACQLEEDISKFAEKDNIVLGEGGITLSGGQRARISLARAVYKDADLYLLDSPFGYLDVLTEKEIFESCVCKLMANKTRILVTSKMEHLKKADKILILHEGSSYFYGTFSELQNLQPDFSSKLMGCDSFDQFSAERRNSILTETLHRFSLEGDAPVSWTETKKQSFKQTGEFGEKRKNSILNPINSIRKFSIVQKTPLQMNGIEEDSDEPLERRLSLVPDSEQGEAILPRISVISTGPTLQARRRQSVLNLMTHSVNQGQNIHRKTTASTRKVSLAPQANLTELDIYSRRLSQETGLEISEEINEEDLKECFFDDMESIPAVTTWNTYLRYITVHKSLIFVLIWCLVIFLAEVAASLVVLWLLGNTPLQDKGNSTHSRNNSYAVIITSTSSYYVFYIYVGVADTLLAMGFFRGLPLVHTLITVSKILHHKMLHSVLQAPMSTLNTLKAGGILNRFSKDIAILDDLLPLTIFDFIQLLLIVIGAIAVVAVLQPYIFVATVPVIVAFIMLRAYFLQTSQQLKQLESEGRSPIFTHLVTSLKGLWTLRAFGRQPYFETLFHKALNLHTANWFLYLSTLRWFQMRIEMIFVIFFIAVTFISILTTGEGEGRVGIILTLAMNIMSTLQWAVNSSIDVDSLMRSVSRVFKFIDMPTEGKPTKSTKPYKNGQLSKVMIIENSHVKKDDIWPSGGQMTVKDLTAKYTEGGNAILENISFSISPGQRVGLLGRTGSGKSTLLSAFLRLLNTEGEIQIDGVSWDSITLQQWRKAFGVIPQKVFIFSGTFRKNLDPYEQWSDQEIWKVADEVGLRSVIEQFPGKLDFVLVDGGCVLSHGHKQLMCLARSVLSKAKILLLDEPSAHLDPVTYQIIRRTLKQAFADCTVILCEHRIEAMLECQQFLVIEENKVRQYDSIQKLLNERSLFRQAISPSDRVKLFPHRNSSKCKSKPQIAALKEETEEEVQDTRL

Row | Structure (SMILES) | Ent. B Max Activity (Table 8) | EC50 [1] | Ent. B Max Activity (%) (Table 9) | EC50 (Table 9)
1 | Cc1cccc(C)c1-c1cc2nc(n1)NS(=O)(=O)c1cccc(c1)C(=O)N(Cc1ccccn1)[C@H](CC(C)(C)C)CO2 [Compound 124, (11R)-6-(2,6-Dimethylphenyl)-11-(2,2-dimethylpropyl)-12-[(pyridin-2-yl)methyl]-9-oxa-2λ^6-thia-3,5,12,19-tetraazatricyclo[12.3.1.14,8]nonadeca-1(17),4,6,8(19),14(18),15-hexaene-2,2,13-trione] | +++ (+++ is >60%) | < 1 µM |  | 
2 | Cc1cccc(C)c1-c1cc2nc(n1)NS(=O)(=O)c1cccc(c1)C(=O)N(Cc1cccc(N)n1)[C@H](CC(C)(C)C)CO2 [Compound 125, (11R)-12-[(6-Amino-2-pyridyl)methyl]-6-(2,6-dimethylphenyl)-11-(2,2-dimethylpropyl)-2,2-dioxo-9-oxa-2λ^6-thia-3,5,12,19-tetrazatricyclo[12.3.1.14,8]nonadeca-1(18),4(19),5,7,14,16-hexaen-13-one] |  |  | +++ (+++ is >600%) | < 1 µM
3 | Cc1cccc(C)c1-c1cc2nc(n1)NS(=O)(=O)c1cccc(c1)C(=O)N(Cc1ccc(C3CNCN3C)cc1)[C@H](CC(C)(C)C)CO2 (some centres unmarked) [Compound 316] |  |  | +++ (+++ is >600%) | 
4 | Cc1cccc(C)c1-c1cc2nc(n1)NS(=O)(=O)c1cccc(c1)C(=O)N(Cc1ccc(-c3cn[nH]c3)cc1)[C@H](CC(C)(C)C)CO2 [Compound 317] |  |  | +++ (+++ is >600%) | < 1 µM
5 | Cc1cccc(C)c1-c1cc2nc(n1)NS(=O)(=O)c1cccc(c1)C(=O)N(Cc1ccc(-c3csc(OC(C)C)n3)cc1)[C@H](CC(C)(C)C)CO2 [Compound 318] |  |  | +++ (+++ is >600%) | < 1 µM
6 | Cc1cccc(C)c1-c1cc2nc(n1)NS(=O)(=O)c1cccc(c1)C(=O)N(CC1CN(C(=O)CO)C1)[C@H](CC(C)(C)C)CO2 [Compound 319] |  |  | + (+ is <300%) | 3 to 30 µM
7 | Cc1cccc(C)c1-c1cc2nc(n1)NSc1cccc(c1)C(=O)N(Cc1ccc(C(C)(C)O)nc1)[C@H](CC(C)(C)C(F)(F)F)CO2 [Compound 320] |  |  | +++ (+++ is >600%) | < 1 µM
8 | Cc1cccc(C)c1-c1cc2nc(n1)NSc1cccc(c1)C(=O)N(Cc1ccc(C(C)(C)O)cc1)[C@H](CC(C)(C)C(F)(F)F)CO2 [Compound 321] |  |  | +++ (+++ is >600%) | < 1 µM
9 | Cc1cccc(C)c1-c1cc2nc(n1)NS(=O)(=O)c1cccc(c1)C(=O)N(CCC(C)(C)C(C)(C)O)[C@H](CC(C)(C)C)CO2 [Compound 334] | +++ (+++ is >60%) | < 1 µM |  | 
10 | Cc1cccc(C)c1-c1cc2nc(n1)NS(=O)(=O)c1cccc(c1)C(=O)N(C[C@H]1C[C@@H](C(C)(C)O)C1)[C@H](CC(C)(C)C)CO2 [Compound 335] | +++ (+++ is >60%) | < 1 µM |  | 
11 | Cc1cccc(C)c1-c1cc2nc(n1)NS(=O)(=O)c1cccc(c1)C(=O)N(C)CC(c1ccc(CC3(C(F)(F)F)CC3)cn1)O2 (centres unmarked) [Compound 336] | +++ (+++ is >60%) | < 1 µM |  | 
12 | Cc1cccc(C)c1-c1cc2nc(n1)NS(=O)(=O)c1cccc(c1)C(=O)N(Cc1ncccc1C(C)(C)O)[C@H](CC(C)(C)C)CO2 [Compound 385] |  |  | +++ (+++ is >600%) | < 1 µM
13 | Cc1cccc(C)c1-c1cc2nc(n1)NS(=O)(=O)c1cccc(c1)C(=O)N(Cc1ncccc1N1CCOCC1)[C@H](CC(C)(C)C)CO2 [Compound 386] |  |  | +++ (+++ is >600%) | < 1 µM
14 | Cc1cccc(C)c1-c1cc2nc(n1)NS(=O)(=O)c1cccc(c1)C(=O)N(Cc1ccc(N)nc1)[C@H](CC(C)(C)C)CO2 [Compound 387] |  |  | +++ (+++ is >600%) | < 1 µM
15 | Cc1cccc(C)c1-c1cc2nc(n1)NS(=O)(=O)c1cccc(c1)C(=O)N(CCS(C)(=O)=O)[C@H](CC(C)C)CO2 [Compound 388] |  |  | +++ (+++ is >600%) | < 1 µM
16 | Cc1cccc(C)c1-c1cc2nc(n1)NS(=O)(=O)c1cccc(c1)C(=O)N(CCCS(C)(=O)=O)[C@H](CC(C)C)CO2 [Compound 389] |  |  | +++ (+++ is >600%) | < 1 µM
17 | Cc1cccc(C)c1-c1cc2nc(n1)NS(=O)(=O)c1cccc(c1)C(=O)N(Cc1ncccc1N)[C@H](CC(C)(C)C)CO2 [Compound 390] |  |  | +++ (+++ is >600%) | < 1 µM
18 | CC(=O)Nc1cccc(CN2C(=O)c3cccc(c3)S(=O)(=O)Nc3nc(cc(-c4c(C)cccc4C)n3)OC[C@H]2CC(C)(C)C)n1 [Compound 391] |  |  | +++ (+++ is >600%) | < 1 µM
19 | Cc1cccc(C)c1-c1cc2nc(n1)NS(=O)(=O)c1cccc(c1)C(=O)N(Cc1ncccc1NC(=O)OC(C)C)[C@H](CC(C)(C)C)CO2 [Compound 392] |  |  | +++ (+++ is >600%) | < 1 µM
20 | CC(=O)Nc1cccnc1CN1C(=O)c2cccc(c2)S(=O)(=O)Nc2nc(cc(-c3c(C)cccc3C)n2)OC[C@H]1CC(C)(C)C [Compound 393] |  |  | +++ (+++ is >600%) | < 1 µM
21 | Cc1cccc(C)c1-c1cc2nc(n1)NS(=O)(=O)c1cccc(c1)C(=O)N(CCc1ccc(C(=O)N(C)C)cc1)[C@H](CC(C)(C)C)CO2 [Compound 394] | +++ (+++ is >60%) | < 1 µM |  | 
22 | CNC(=O)c1ccc(CCN2C(=O)c3cccc(c3)S(=O)(=O)Nc3nc(cc(-c4c(C)cccc4C)n3)OC[C@H]2CC(C)(C)C)cc1 [Compound 395] | ++ (++ is 30-60%) | < 1 µM |  | 
23 | Cc1cccc(C)c1-c1cc2nc(n1)NS(=O)(=O)c1cccc(c1)C(=O)N(CCc1ccc(C(N)=O)cc1)[C@H](CC(C)(C)C)CO2 [Compound 396] | ++ (++ is 30-60%) | < 1 µM |  | 
24 | CNC(=O)c1ccc(CN2C(=O)c3cccc(c3)S(=O)(=O)Nc3nc(cc(-c4c(C)cccc4C)n3)OC[C@H]2CC(C)(C)C)nc1 [Compound 397] | +++ (+++ is >60%) | < 1 µM |  | 
25 | Cc1cccc(C)c1-c1cc2nc(n1)NS(=O)(=O)c1cccc(c1)C(=O)N(Cc1ccc(C(N)=O)cn1)[C@H](CC(C)(C)C)CO2 [Compound 398] | +++ (+++ is >60%) | < 1 µM |  | 
26 | Cc1cccc(C)c1-c1cc2nc(n1)NS(=O)(=O)c1cccc(c1)C(=O)N(CC(C)(C)C)[C@H](CC(C)(C)C)CO2 [Compound 399] |  |  | +++ (+++ is >600%) | < 1 µM
27 | Cc1cccc(C)c1-c1cc2nc(n1)NS(=O)(=O)c1cccc(c1)C(=O)N(CC(C)(C)C)[C@H](CC(C)C)CO2 [Compound 400] | ++ (++ is 30-60%) | < 1 µM |  | 
28 | Cc1cccc(C)c1-c1cc2nc(n1)NS(=O)(=O)c1cccc(c1)C(=O)N(Cc1ccc(NC(=O)OC(C)C)nc1)[C@H](CC(C)(C)C)CO2 [Compound 401] | +++ (+++ is >60%) | < 1 µM |  | 
29 | COC(=O)Nc1ccc(CN2C(=O)c3cccc(c3)S(=O)(=O)Nc3nc(cc(-c4c(C)cccc4C)n3)OC[C@H]2CC(C)(C)C)cn1 [Compound 402] | +++ (+++ is >60%) | < 1 µM |  | 
30 | COC(=O)N1CCn2ncc(CN3C(=O)c4cccc(c4)S(=O)(=O)Nc4nc(cc(-c5c(C)cccc5C)n4)OC[C@H]3CC(C)(C)C)c2C1 [Compound 403] | +++ (+++ is >60%) | < 1 µM |  | 
